The values that follow come from publication PMC13186263 (The Journal of organic chemistry, 2020).

In one experiment the target is PKCα (Homo sapiens, UniProt P17252). Put plainly: biochemical. The experiment is classed as binding.
Another experiment has as its target PKCβI (Homo sapiens, UniProt P05771). Description: PKC binding assay, competition with 3H-PDBu.
The target of another experiment is PKCδ (Homo sapiens, UniProt Q05655). Description: PKC binding assay, competition with 3H-PDBu.
In the next experiment the target is T1, PKCε (Homo sapiens, UniProt Q02156).
T1 sequence (Q02156 1-737): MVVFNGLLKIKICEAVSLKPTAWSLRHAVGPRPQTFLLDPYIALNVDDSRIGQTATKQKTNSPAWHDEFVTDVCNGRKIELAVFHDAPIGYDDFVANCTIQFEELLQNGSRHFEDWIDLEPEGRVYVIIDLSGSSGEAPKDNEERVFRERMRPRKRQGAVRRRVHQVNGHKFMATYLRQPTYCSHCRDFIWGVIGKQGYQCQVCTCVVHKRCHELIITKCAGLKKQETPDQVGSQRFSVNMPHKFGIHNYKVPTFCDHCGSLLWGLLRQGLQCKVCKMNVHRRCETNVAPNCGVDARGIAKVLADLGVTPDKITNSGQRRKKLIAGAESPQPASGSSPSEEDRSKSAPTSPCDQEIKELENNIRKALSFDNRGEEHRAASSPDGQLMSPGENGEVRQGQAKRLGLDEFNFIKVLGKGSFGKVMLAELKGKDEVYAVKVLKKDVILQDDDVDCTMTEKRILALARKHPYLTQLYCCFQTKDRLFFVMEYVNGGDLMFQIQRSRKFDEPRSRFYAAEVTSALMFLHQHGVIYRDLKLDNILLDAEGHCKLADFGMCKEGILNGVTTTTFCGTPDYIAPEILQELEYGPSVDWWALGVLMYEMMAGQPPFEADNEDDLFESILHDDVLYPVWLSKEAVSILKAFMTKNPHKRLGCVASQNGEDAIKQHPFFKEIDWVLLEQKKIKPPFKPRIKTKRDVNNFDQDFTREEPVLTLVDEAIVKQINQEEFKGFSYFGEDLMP
Put plainly: PKC binding assay, competition with 3H-PDBu.

Another experiment concerns the target PKCθ (Homo sapiens, UniProt Q04759). Put plainly: PKC binding assay, competition with 3H-PDBu.
The next experiment deals with PKC isoforms. Description: Cell-free competitive PKC binding, statements across isoforms. Conditions: five PKC isoforms. Details: species or system human.

Molecules are shown by their SMILES.

PKCθ, sequence (Q04759 whole entry, canonical isoform): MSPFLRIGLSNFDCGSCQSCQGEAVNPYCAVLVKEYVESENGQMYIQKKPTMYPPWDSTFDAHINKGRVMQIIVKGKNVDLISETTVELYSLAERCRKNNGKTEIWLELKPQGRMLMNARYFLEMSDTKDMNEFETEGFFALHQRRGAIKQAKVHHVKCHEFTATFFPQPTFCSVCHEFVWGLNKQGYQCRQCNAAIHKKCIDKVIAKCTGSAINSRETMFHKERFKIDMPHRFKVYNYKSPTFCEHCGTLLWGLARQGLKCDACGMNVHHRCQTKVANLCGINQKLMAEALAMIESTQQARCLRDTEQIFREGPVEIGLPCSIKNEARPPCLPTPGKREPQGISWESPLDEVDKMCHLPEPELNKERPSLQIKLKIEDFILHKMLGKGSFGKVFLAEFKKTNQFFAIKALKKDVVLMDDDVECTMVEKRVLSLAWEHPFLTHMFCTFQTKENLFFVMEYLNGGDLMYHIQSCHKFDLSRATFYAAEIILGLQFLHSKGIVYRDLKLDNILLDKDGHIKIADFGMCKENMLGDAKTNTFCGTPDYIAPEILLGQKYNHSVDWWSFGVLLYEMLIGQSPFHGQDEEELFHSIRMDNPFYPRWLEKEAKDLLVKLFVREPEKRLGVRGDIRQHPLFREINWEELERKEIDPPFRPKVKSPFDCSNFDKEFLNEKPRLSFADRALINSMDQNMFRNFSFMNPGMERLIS
PKCδ, sequence (Q05655 whole entry): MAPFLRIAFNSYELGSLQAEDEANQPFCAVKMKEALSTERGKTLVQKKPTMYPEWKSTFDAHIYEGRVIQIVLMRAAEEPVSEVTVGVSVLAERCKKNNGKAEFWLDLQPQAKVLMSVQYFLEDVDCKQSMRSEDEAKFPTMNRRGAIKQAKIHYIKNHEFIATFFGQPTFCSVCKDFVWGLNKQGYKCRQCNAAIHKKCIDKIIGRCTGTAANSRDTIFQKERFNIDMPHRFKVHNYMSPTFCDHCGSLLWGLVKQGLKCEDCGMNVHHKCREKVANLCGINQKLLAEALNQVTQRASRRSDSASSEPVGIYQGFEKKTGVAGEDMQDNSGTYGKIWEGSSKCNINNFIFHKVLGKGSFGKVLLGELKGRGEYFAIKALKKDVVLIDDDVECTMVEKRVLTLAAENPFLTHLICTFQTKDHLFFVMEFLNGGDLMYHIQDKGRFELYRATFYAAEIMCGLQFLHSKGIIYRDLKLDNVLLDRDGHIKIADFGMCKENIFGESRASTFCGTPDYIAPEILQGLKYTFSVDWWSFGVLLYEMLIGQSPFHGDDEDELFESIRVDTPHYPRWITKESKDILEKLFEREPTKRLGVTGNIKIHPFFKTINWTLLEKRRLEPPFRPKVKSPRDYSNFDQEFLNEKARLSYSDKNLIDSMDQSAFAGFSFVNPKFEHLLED
PKCβI, sequence (P05771 whole entry): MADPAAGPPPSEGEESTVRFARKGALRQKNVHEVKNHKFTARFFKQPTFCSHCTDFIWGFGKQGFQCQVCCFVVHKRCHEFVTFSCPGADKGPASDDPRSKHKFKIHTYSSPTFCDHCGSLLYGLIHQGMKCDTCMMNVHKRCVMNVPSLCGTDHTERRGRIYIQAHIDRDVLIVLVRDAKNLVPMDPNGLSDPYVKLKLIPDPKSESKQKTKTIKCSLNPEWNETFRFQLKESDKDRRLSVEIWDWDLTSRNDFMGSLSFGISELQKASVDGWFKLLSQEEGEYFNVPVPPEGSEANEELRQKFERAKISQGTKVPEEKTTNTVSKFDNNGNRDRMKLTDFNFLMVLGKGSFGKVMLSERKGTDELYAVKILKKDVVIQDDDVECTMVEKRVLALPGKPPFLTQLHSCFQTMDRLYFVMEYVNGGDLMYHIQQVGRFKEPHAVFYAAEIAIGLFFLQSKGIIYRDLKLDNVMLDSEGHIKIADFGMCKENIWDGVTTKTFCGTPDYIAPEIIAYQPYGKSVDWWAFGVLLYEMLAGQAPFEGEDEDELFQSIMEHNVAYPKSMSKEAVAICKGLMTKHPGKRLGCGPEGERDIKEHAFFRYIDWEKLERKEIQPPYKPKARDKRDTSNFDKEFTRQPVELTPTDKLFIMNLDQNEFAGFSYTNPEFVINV

One may read the Ki as a dissociation constant, usually derived from enzyme kinetics or from competition with a known ligand. Higher therefore signals weaker binding. Consider `CCCCCCCC(=O)O[C@H]1/C(=C/C(=O)OC)C[C@H]2C[C@H](CO)OC(=O)CCCC(=O)OCC(C)(C)[C@]1(O)O2` [7a, (1S,3R,13S,14S,E)-13-Hydroxy-3-(hydroxymethyl)-15-(2-methoxy-2-oxoethylidene)-12,12-dimethyl-5,9-dioxo-4,10,17-trioxabicyclo[11.3.1]heptadecan-14-yl Octanoate], for which the Ki on PKCα amounted to 4.4 nM; on PKCβI, 4 nM; on PKCδ, 1.7 nM; at PKCε it was 2.7 nM; at PKCθ, 1.5 nM. In addition, the “PKC binding affinities” value with PKC isoforms is reported as “comparable to bryostatin”.

In the case of `CCCCCCCC(=O)O[C@H]1/C(=C/C(=O)OC)C[C@H]2C[C@H]([C@@H](C)O)OC(=O)CCCC(=O)OCC(C)(C)[C@]1(O)O2` [7b, (1S,3R,13S,14S,E)-13-Hydroxy-3-((R)-1-hydroxyethyl)-15-(2-methoxy-2-oxoethylidene)-12,12-dimethyl-5,9-dioxo-4,10,17-trioxabicyclo[11.3.1]heptadecan-14-yl Octanoate], the “PKC binding affinities” value with PKC isoforms is recorded as “strongly attenuated binding affinity relative to the des-methyl compound 7a”.

`CCC/C=C/C=C/C(=O)O[C@H]1/C(=C/C(=O)OC)C[C@H]2C[C@H]([C@@H](C)O)OC(=O)C[C@H](O)C[C@@H]3C[C@H](OC(C)=O)C(C)(C)[C@](O)(C[C@@H]4C/C(=C/C(=O)OC)C[C@H](/C=C/C(C)(C)[C@]1(O)O2)O4)O3` [bryostatin 1, Bryostatin 1, reference compound]: the inhibitory constant (Ki) at PKCε is 3 nM; at PKCθ it was 1.5 nM.
